Assay results from patent publication US20230303598A1, “BIOINSPIRED LIPID DERIVATIVES AND USES THEREOF” (Ohio State Innovation Foundation, priority 2020, published 2023).

Tested on: Hep3b cells
Assay: in vitro mRNA delivery screening of ionizable lipid LNPs with mRNA encoding firefly luciferase
Format: cell-based
Conditions: LNPs of compound/DOPE/cholesterol/PEG-lipid at ratios 20:30:40:0.75, 40:30:40:0.75 and 60:30:40:0.75, Hep3b cells (FIGS. 1-3)
From the text: FIG. 1 illustrates the results of in vitro mRNA delivery screening of ionizable lipids in Hep3b cells at a ratio of 20:30:40:0.75 (compound/DOPE/cholesterol/PEG-lipid).
FIG. 2 illustrates the results of in vitro mRNA delivery screening of ionizable lipids in Hep3b cells at a ratio of 40:30:40:0.75 (compound/DOPE/cholesterol/PEG-lipid).
FIG. 3 illustrates the results of in vitro mRNA delivery screening of ionizable lipids in Hep3b cells at a ratio of 60:30:40:0.75 (compound/DOPE/cholesterol/PEG-lipid).
Phosphates and phosporamide lipid-like compounds First, forty ionizable lipids were synthesized. Then, these ionizable lipids were formulated with DOPE/cholesterol/PEG-lipid at three different ratios (20:30:40:0.75, 40:30:40:0.75, and 60:30:40:0.75) to prepare lipid nanoparticles (LNPs) and screened in Hep3b cells using mRNA-encoding firefly luciferase.

**Q.** How did the mRNA delivery effectiveness turn out when `CCCCCCCC/C=C\CCCCCCCCOP(=O)(OCCCCCCCC/C=C\CCCCCCCC)OCCN(C)C` [ZYB20200113-1] was run?
**A.** more effective for mRNA delivery than other ionizable lipids
